According to US20250340552A1, “COMPOUNDS, COMPOSITIONS AND METHODS OF TREATING DISORDERS” (HOTSPOT THERAPEUTICS, INC., priority 2022, published 2025):
Like-named read-outs stand apart in the source and are kept apart here.

Molecular target: T1, Cbl-B (Homo sapiens, UniProt Q13191)
T1 construct: MSD-Based Assay for Degradation of Cbl-B in THP-1 Cells; endogenous in cells; host or cells: THP-1 (title) / Jurkat (protocol text)
Assay: MSD-based assay for degradation of Cbl-B in THP-1 cells
Type: cell-based
Outline: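 THP-1 cells were treated with compound for 24 h at 37 °C. Cbl-B in lysates was quantified by MSD sandwich immunoassay, with anti-Cbl-B capture antibody at 1 ug/mL and SULFO-TAG anti-rabbit detection. Maximal degradation (Dmax) was binned as A >70%, B 50–70%, C 30–50%, D <30%.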

[1] = Cbl-B degradation, Jurkat cells seeded (heading: THP-1 cells), 24 hours incubation, MSD readout
[2] = Cbl-B degradation, Jurkat cells seeded (heading: THP-1 cells), 24 hours incubation, MSD readout, read-out: Dmax

T1 sequence (Q13191 whole entry): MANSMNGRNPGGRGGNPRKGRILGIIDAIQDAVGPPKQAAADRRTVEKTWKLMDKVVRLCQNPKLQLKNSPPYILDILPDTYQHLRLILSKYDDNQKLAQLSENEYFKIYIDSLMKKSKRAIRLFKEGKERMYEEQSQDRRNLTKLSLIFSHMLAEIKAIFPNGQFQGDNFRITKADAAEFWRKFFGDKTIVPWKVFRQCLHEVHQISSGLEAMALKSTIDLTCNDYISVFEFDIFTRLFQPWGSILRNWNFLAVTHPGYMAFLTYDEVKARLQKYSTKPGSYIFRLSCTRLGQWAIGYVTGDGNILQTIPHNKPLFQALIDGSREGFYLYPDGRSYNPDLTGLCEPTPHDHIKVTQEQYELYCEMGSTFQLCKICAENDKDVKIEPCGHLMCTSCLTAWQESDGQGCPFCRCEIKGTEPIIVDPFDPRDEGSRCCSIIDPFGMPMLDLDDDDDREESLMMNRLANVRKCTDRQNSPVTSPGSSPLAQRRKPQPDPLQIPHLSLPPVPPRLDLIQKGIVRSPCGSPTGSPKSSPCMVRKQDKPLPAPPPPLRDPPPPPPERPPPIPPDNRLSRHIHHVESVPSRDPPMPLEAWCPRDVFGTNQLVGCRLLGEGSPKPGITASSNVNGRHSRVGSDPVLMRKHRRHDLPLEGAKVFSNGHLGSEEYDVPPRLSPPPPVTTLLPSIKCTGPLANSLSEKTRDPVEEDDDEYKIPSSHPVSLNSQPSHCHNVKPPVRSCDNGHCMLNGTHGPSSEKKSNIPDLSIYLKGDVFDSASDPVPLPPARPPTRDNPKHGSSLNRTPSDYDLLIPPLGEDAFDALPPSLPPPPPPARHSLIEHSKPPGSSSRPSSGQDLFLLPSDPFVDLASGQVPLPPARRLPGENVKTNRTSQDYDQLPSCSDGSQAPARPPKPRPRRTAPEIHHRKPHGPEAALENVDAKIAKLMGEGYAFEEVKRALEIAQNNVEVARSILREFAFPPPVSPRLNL

Row | Compound | DC50 [1] | Dmax [2] | Dmax (THP-1)
1 | Cn1cnnc1CC1(c2cccc(-n3cc4c(C(F)(F)F)cc(CN5CCC[C@@H](OC6CCN(C(=O)c7ccc(N8CCN(c9ccc%10c(c9)CN([C@H]9CCC(=O)NC9=O)C%10=O)CC8)cc7)CC6)C5)cn4c3=O)c2)COC1 (single isomer, unassigned) [Compound 264] | < 30 nM | > 70% | –
2 | Cn1cnnc1CC1(c2cccc(-n3cc4c(C(F)(F)F)cc(CNCCOCCOCCNc5cccc6c5C(=O)N(C5CCC(=O)NC5=O)C6=O)cn4c3=O)c2)COC1 (centres unmarked) [Compound 1] | > 10000 nM | < 30% | –
3 | Cn1cnnc1CC1(c2cccc(-n3cc4c(C(F)(F)F)cc(CNCCOCCNc5cccc6c5C(=O)N(C5CCC(=O)NC5=O)C6=O)cn4c3=O)c2)COC1 (centres unmarked) [Compound 2] | > 10000 nM | < 30% | –
4 | Cn1cnnc1CC1(c2cccc(-n3cc4c(C(F)(F)F)cc(CN5CCC(OCCOCc6ccc(COCCNc7cccc8c7C(=O)N(C7CCC(=O)NC7=O)C8=O)cc6)CC5)cn4c3=O)c2)COC1 (centres unmarked) [Compound 3] | 300 to 1000 nM | 50 to 70% | –
5 | Cn1cnnc1CC1(c2cccc(-n3cc4c(C(F)(F)F)cc(CNCCOCCOCc5ccc(COCCNc6cccc7c6C(=O)N(C6CCC(=O)NC6=O)C7=O)cc5)cn4c3=O)c2)COC1 (centres unmarked) [Compound 4] | > 10000 nM | < 30% | –
6 | Cn1cnnc1CC1(c2cccc(-n3cc4c(C(F)(F)F)cc(CN5CCC(OCCN6CCC(CN7CCN(c8cc9c(cc8F)C(=O)N(C8CCC(=O)NC8=O)C9=O)CC7)CC6)CC5)cn4c3=O)c2)COC1 (centres unmarked) [Compound 7] | > 10000 nM | – | < 30%
7 | Cn1cnnc1CC1(c2cccc(-n3cc4c(C(F)(F)F)cc(CN5CCC(OCCOCc6ccc(CNc7cccc8c7C(=O)N(C7CCC(=O)NC7=O)C8=O)cc6)CC5)cn4c3=O)c2)COC1 (centres unmarked) [Compound 12] | > 10000 nM | < 30% | –
8 | Cn1cnnc1[C@@H](c1cccc(-n2cc3c(C(F)(F)F)cc(CN4CCC(OCc5ccc(COCCNc6cccc7c6C(=O)N(C6CCC(=O)NC6=O)C7=O)cc5)CC4)cn3c2=O)c1)C1CCC1 (some centres unmarked) [Compound 13] | 1000 to 10000 nM | < 30% | –
9 | Cn1cnnc1[C@@H](c1cccc(-n2cc3c(C(F)(F)F)cc(CN4CCC(OCCOCc5ccc(CNc6cccc7c6C(=O)N(C6CCC(=O)NC6=O)C7=O)cc5)CC4)cn3c2=O)c1)C1CCC1 (some centres unmarked) [Compound 14] | 1000 to 10000 nM | 30 to 50% | –
10 | CN(CCN1CCC(CN2CCN(c3cc4c(cc3F)C(=O)N(C3CCC(=O)NC3=O)C4=O)CC2)CC1)Cc1cc(C(F)(F)F)c2cn(-c3cccc(C4(Cc5nncn5C)COC4)c3)c(=O)n2c1 (centres unmarked) [Compound 15] | > 10000 nM | < 30% | –
11 | Cn1cnnc1[C@@H](c1cccc(-n2cc3c(C(F)(F)F)cc(CN4CCC(OCCN5CCC(CN6CCN(c7cc8c(cc7F)C(=O)N(C7CCC(=O)NC7=O)C8=O)CC6)CC5)CC4)cn3c2=O)c1)C1CCC1 (some centres unmarked) [Compound 16] | 1000 to 10000 nM | 30 to 50% | –
12 | Cn1cnnc1[C@@H](c1cccc(-n2cc3c(C(F)(F)F)cc(CN4CCC[C@H](OCCOCc5ccc(COCCNc6cccc7c6C(=O)N(C6CCC(=O)NC6=O)C7=O)cc5)C4)cn3c2=O)c1)C1CCC1 (some centres unmarked) [Compound 17] | 30 to 300 nM | 50 to 70% | –
13 | Cn1cnnc1CC1(c2cccc(-n3cc4c(C(F)(F)F)cc(CN5CCC(OCCOCc6ccc(CN7CCN(c8cc9c(cc8F)C(=O)N(C8CCC(=O)NC8=O)C9=O)CC7)cc6)CC5)cn4c3=O)c2)COC1 (centres unmarked) [Compound 18] | > 10000 nM | < 30% | –
14 | Cn1cnnc1CC1(c2cccc(-n3cc4c(C(F)(F)F)cc(CN5CCC(OCCOCc6ccc(CN7CCN(c8cccc9c8C(=O)N(C8CCC(=O)NC8=O)C9=O)CC7)cc6)CC5)cn4c3=O)c2)COC1 (centres unmarked) [Compound 19] | > 10000 nM | < 30% | –
15 | Cn1cnnc1[C@@H](c1cccc(-n2cc3c(C(F)(F)F)cc(CC4CCC[C@@H](OCCOCc5ccc(COCCNc6cccc7c6C(=O)N(C6CCC(=O)NC6=O)C7=O)cc5)C4)cn3c2=O)c1)C1CCC1 (some centres unmarked) [Compound 20] | 300 to 1000 nM | 50 to 70% | –
16 | Cn1cnnc1CC1(c2cccc(N3Cc4c(cc(CN5CCC(OCCOCc6ccc(COCCNc7cccc8c7C(=O)N(C7CCC(=O)NC7=O)C8=O)cc6)CC5)cc4C(F)(F)F)C3=O)c2)COC1 (centres unmarked) [Compound 21] | 1000 to 10000 nM | 30 to 50% | –
17 | Cn1cnnc1[C@@H](c1cccc(N2Cc3c(cc(CN4CCC(OCCOCc5ccc(COCCNc6cccc7c6C(=O)N(C6CCC(=O)NC6=O)C7=O)cc5)CC4)cc3C(F)(F)F)C2=O)c1)C1CCC1 (some centres unmarked) [Compound 22] | 30 to 300 nM | > 70% | –
18 | Cn1cnnc1[C@@H](c1cccc(-n2cc3c(C(F)(F)F)cc(CN4CCC(OCCOCc5ccc(CN6CCN(c7cc8c(cc7F)C(=O)N(C7CCC(=O)NC7=O)C8=O)CC6)cc5)CC4)cn3c2=O)c1)C1CCC1 (some centres unmarked) [Compound 23] | > 10000 nM | < 30% | –
19 | Cn1cnnc1[C@@H](c1cccc(-n2cc3c(C(F)(F)F)cc(CN4CCC(OCCOCc5ccc(CN6CCN(c7cccc8c7C(=O)N(C7CCC(=O)NC7=O)C8=O)CC6)cc5)CC4)cn3c2=O)c1)C1CCC1 (some centres unmarked) [Compound 24] | > 10000 nM | < 30% | –

Row | Compound | DC50 [1] | Dmax [2] | Dmax (THP-1)
20 | Cn1cnnc1CC1(c2cccc(-n3cc4c(C(F)(F)F)cc(CN5CCC(OCCN6CCC(CN7CCCN(c8ccc9c(c8)CN(C8CCC(=O)NC8=O)C9=O)CC7)CC6)CC5)cn4c3=O)c2)COC1 (centres unmarked) [Compound 25] | 300 to 1000 nM | 30 to 50% | –
21 | Cn1cnnc1[C@@H](c1cccc(-n2cc3c(C(F)(F)F)cc(CN4CCC(COCc5ccc(CN6CCN(c7cccc8c7C(=O)N(C7CCC(=O)NC7=O)C8=O)CC6)cc5)CC4)cn3c2=O)c1)C1CCC1 (some centres unmarked) [Compound 28] | > 10000 nM | < 30% | –
22 | Cn1cnnc1[C@@H](c1cccc(-n2cc3c(C(F)(F)F)cc(CN4CCC(CN5CCC(CN6CCN(c7cc8c(cc7F)C(=O)N(C7CCC(=O)NC7=O)C8=O)CC6)CC5)CC4)cn3c2=O)c1)C1CCC1 (some centres unmarked) [Compound 29] | > 10000 nM | < 30% | –
23 | Cn1cnnc1[C@@H](c1cccc(-n2cc3c(C(F)(F)F)cc(CN4CCC(C(=O)N5CCC(CN6CCN(c7cc8c(cc7F)C(=O)N(C7CCC(=O)NC7=O)C8=O)CC6)CC5)CC4)cn3c2=O)c1)C1CCC1 (some centres unmarked) [Compound 30] | > 10000 nM | < 30% | –
24 | Cn1cnnc1[C@@H](c1cccc(-n2cc3c(C(F)(F)F)cc(CN4CCC[C@@H](OCCOCc5ccc(COCCNc6cccc7c6C(=O)N(C6CCC(=O)NC6=O)C7=O)cc5)CC4)cn3c2=O)c1)C1CCC1 (some centres unmarked) [Compound 31] | 30 to 300 nM | 50 to 70% | –
25 | Cn1cnnc1[C@@H](c1cccc(-n2cc3c(C(F)(F)F)cc(CN4CCC[C@H](OCCOCc5ccc(COCCNc6cccc7c6C(=O)N(C6CCC(=O)NC6=O)C7=O)cc5)CC4)cn3c2=O)c1)C1CCC1 (some centres unmarked) [Compound 32] | 30 to 300 nM | 30 to 50% | –
26 | CN(CCOC1CCN(Cc2cc(C(F)(F)F)c3cn(-c4cccc([C@H](c5nncn5C)C5CCC5)c4)c(=O)n3c2)CC1)C(=O)c1ccc(N2CCN(c3cccc4c3C(=O)N(C3CCC(=O)NC3=O)C4=O)CC2)cc1 (some centres unmarked) [Compound 33] | > 10000 nM | < 30% | –
27 | CN(CCOC1CCN(Cc2cc(C(F)(F)F)c3cn(-c4cccc([C@H](c5nncn5C)C5CCC5)c4)c(=O)n3c2)CC1)C(=O)c1ccc(N2CCN(c3ccc4c(c3)CN([C@H]3CCC(=O)NC3=O)C4=O)CC2)cc1 [Compound 34] | 30 to 300 nM | – | > 70%
28 | CN(CCOC1CCN(Cc2cc(C(F)(F)F)c3cn(-c4cccc([C@H](c5nncn5C)C5CCC5)c4)c(=O)n3c2)CC1)C(=O)c1ccc(N2CCN(c3ccc4c(c3)CN([C@@H]3CCC(=O)NC3=O)C4=O)CC2)cc1 [Compound 35] | 300 to 1000 nM | 50 to 70% | –
29 | Cn1cnnc1CC1(c2cccc(-n3cc4c(C(F)(F)F)cc(CN5CCC(OCCNc6cccc7c6C(=O)N(C6CCC(=O)NC6=O)C7=O)CC5)cn4c3=O)c2)COC1 (centres unmarked) [Compound 36] | 1000 to 10000 nM | < 30% | –
30 | Cn1cnnc1[C@@H](c1cccc(-n2cc3c(C(F)(F)F)cc(CN4CCC(OCCNc5cccc6c5C(=O)N(C5CCC(=O)NC5=O)C6=O)CC4)cn3c2=O)c1)C1CCC1 (some centres unmarked) [Compound 37] | 1000 to 10000 nM | < 30% | –
31 | Cn1cnnc1[C@@H](c1cccc(-n2cc3c(C(F)(F)F)cc(CN4CCC(CN5CCC(CN6CCN(c7ccc8c(c7)CN(C7CCC(=O)NC7=O)C8=O)CC6)CC5)CC4)cn3c2=O)c1)C1CCC1 (some centres unmarked) [Compound 38] | 1000 to 10000 nM | 50 to 70% | –
32 | Cn1cnnc1CC1(c2cccc(-n3cc4c(C(F)(F)F)cc(CN5CCC(N6CCN(c7ccc8c(c7)CN(C7CCC(=O)NC7=O)C8=O)CC6)CC5)cn4c3=O)c2)COC1 (centres unmarked) [Compound 39] | > 10000 nM | – | < 30%
33 | Cn1cnnc1CC1(c2cccc(-n3cc4c(C(F)(F)F)cc(CN5CCC(CN6CCC(CN7CCN(c8ccc9c(c8)CN(C8CCC(=O)NC8=O)C9=O)CC7)CC6)CC5)cn4c3=O)c2)COC1 (centres unmarked) [Compound 42] | > 10000 nM | – | < 30%
34 | Cn1cnnc1CC1(c2cccc(-n3cc4c(C(F)(F)F)cc(CN5CCC(C(=O)N6CCC(CN7CCN(c8ccc9c(c8)CN(C8CCC(=O)NC8=O)C9=O)CC7)CC6)CC5)cn4c3=O)c2)COC1 (centres unmarked) [Compound 43] | > 10000 nM | – | < 30%
35 | Cn1cnnc1[C@@H](c1cccc(-n2cc3c(C(F)(F)F)cc(CN4CCC(C(=O)N5CCC(CN6CCN(c7ccc8c(c7)CN(C7CCC(=O)NC7=O)C8=O)CC6)CC5)CC4)cn3c2=O)c1)C1CCC1 (some centres unmarked) [Compound 44] | > 10000 nM | 30 to 50% | –
36 | Cn1cnnc1CC1(c2cccc(-n3cc4c(C(F)(F)F)cc(CN5CC[C@@H](OCCOCc6ccc(COCCNc7cccc8c7C(=O)N(C7CCC(=O)NC7=O)C8=O)cc6)C5)cn4c3=O)c2)COC1 (some centres unmarked) [Compound 45] | 300 to 1000 nM | 50 to 70% | –
37 | Cn1cnnc1CC1(c2cccc(-n3cc4c(C(F)(F)F)cc(CN5CC[C@H](OCCOCc6ccc(COCCNc7cccc8c7C(=O)N(C7CCC(=O)NC7=O)C8=O)cc6)C5)cn4c3=O)c2)COC1 (some centres unmarked) [Compound 46] | > 10000 nM | 30 to 50% | –
